Reference: patent US20240027453A1, “METHOD FOR DETECTION AND QUANTITATIVE MONITORING OF INFECTIONS WITH HERPESVIRUSES” (The Trustees of Princeton University, priority 2020, published 2024)
Like-named read-outs stand apart in the source and are kept apart here.

Tested on: HCMV
Assay type: cell-based
Conditions: DE
Description: In example herpesvirus PRM assay methods shown herein, cell pellets were lysed in 2% SDS, 100 mM NaCl, 0.5 mM EDTA, 50 mM Tris, pH 8.2, and 50 μg of protein was reduced and alkylated with 25 mM TCEP and 50 mM CAM respectively for 20 min at 70° C. Proteins were then precipitated via methanol chloroform precipitation (Wessel & Flugg, Anal Biochem. 138(1):141-143, 1984), resuspended in 50 mM HEPES, pH 8.2 and digested overnight with trypsin (50:1 protein:enzyme w/w ratio). Digested peptides were desalted by SDB-RPS StageTip as previously described (Lum et al., Cell Syst., 7(6):[…], 2018; Greco et al., Methods Mol Biol 1410:39-63, 2016; Federspiel & Cristea, Methods Mol Biol., 1977:115-143, 2019).
Peptides (1.0 μg on column) were analyzed by LC-MS/MS using a Dionex Ultimate 3000 UHPLC coupled online to an EASYSpray ion source and a Q Exactive HF. Peptides were separated on an EASYSpray C18 column (75 μm×25 cm) heated to 50° C. using a linear gradient of 5% B to 32% B over 60 min at a flow rate of 250 nL/min and were ionized at 1.7 kv. Mobile phase A consisted of 0.1% FA in H2O and mobile phase B consisted of 0.1% FA, 2.9% H2O in ACN.
The PRM method was controlled by a peptide inclusion list with retention time windows of 6 min for selected precursor ions.
The PRM assay was developed and analyzed using the open-source software Skyline (Maclean et al., Bioinformatics 26(7):966-968, 2010). Summed area under the curve of 3-4 transitions per peptide was used for quantitation. Targeted peptides were normalized to host protein loading control peptides. Peptide values for each sample were scaled to the average of each peptide across all runs. The average of multiple peptides was used as the inferred value for the protein measurement when more than one peptide was quantified (Federspiel et al., PLoS Biol. 17(9):e3000437. Doi: 10.1371/journal.pbio.3000437). PRM quantitation data were graphed using the Python Seaborn and Matplotlib libraries.
MRC5 primary human fibroblasts (HFs) (ATCC CCL-171) were used as the model system for HSV-1 and HCMV infections and were cultured in complete growth medium (DMEM supplemented with 10% fetal bovine serum and 1% penicillin-streptomycin antibiotics) at 37° C. and 5% CO2. iSLK.219 cells harboring latent KSHV (a gift from Dr. Britt Glaunsinger, University of California, Berkeley) were grown in complete growth medium supplemented with 500 μg/ml hygromycin (ThermoFisher Scientific, 10687010) at 37° C. and 5% CO2. All cells were used for experiments within a maximum of 10 passages.
Wild type HSV-1 strain 17+ (a gift from Beate Sodeik, Hannover Medical School, Hannover, Germany) was propagated as previously described (Diner et al., 2015). Briefly, PO stocks were generated by electroporating pBAC-HSV-1 into U-2 OS cells. […] In a similar manner, wild type HCMV strain AD169 was produced from BAC electroporation into HFs and working stocks were propagated by infecting HFs at a low level. In both cases, cell-associated virus was released by sonication, combined with supernatant virus, then concentrated by ultracentrifugation (20,000 rpm, 2 hours, 4° C. with SW28 swinging bucket rotor [Beckman Coulter]) over a 10% ficoll (HSV-1) or 20% sorbitol (HCMV) cushion. Virus stock titers were determined by plaque assay for HSV-1 or tissue culture infectious dose (TCID50) for HCMV and infections were performed at a multiplicity of infection (MOI) of 3.
12 hours prior to virus infection or reactivation, cells were treated with either the small molecule drug or DMSO/PBS control at an equivalent volume. […] For infection cycles lasting longer than 24 hours, small molecule drugs were re-added to the cell culture medium every 24 hours. Upon collection, cells were rinsed with PBS, scraped into a microcentrifuge tube, pelleted by centrifugation, and rinsed again with PBS.

## Nc1ccn(C[C@@H](CO)OCP(=O)(O)O)c(=O)n1 [CDV, cidofovir]
Timepoint 48
  UL71 (P16823) protein, numerical value of heatmap FIG. 6C: 0.3899
  UL78 (P16751) protein, numerical value of heatmap FIG. 6C: 0.6533
  UL84 (P16727) protein, numerical value of heatmap FIG. 6C: 0.1297
  UL95 (P16801) protein, numerical value of heatmap FIG. 6C: 0.1215
  UL96 (P16787) protein, numerical value of heatmap FIG. 6C: 0.3595
  UL97 (P16788) protein, numerical value of heatmap FIG. 6C: 0.2502
  UL98 (P16789) protein, numerical value of heatmap FIG. 6C: 0.3561
  UL102 (P16827) protein, numerical value of heatmap FIG. 6C: 0.7853
  UL104 (P16735) protein, numerical value of heatmap FIG. 6C: 0.06237
  UL112/UL113 (P17151) protein, numerical value of heatmap FIG. 6C: 0.5163
  UL114 (P16769) protein, numerical value of heatmap FIG. 6C: 0.6429
  UL119/UL118 (P16739) protein, numerical value of heatmap FIG. 6C: 0.3879
  UL128 (P16837) protein, numerical value of heatmap FIG. 6C: 0.163
  US8 (P09730) protein, numerical value of heatmap FIG. 6C: 0.9091
  US9 (P09729) protein, numerical value of heatmap FIG. 6C: 0.6112
  US12 (P09721) protein, numerical value of heatmap FIG. 6C: 0.7192
  US13 (P09720) protein, numerical value of heatmap FIG. 6C: 0.7254
  US14 (P09719) protein, numerical value of heatmap FIG. 6C: 0.2849
  US18 (P69334) protein, numerical value of heatmap FIG. 6C: 0.7625
  US22 (P09722) protein, numerical value of heatmap FIG. 6C: 0.4007
  US23 (P09701) protein, numerical value of heatmap FIG. 6C: 0.4974
  US24 (P09700) protein, numerical value of heatmap FIG. 6C: 0.4753
  gB (P06473) protein, numerical value of heatmap FIG. 6C: 0.1893
  sp|P09710|IR01_HCMVA (P09710) protein, numerical value of heatmap FIG. 6C: 0.2164
Timepoint 72
  CVC2 (P16726) protein, numerical value of heatmap FIG. 6C: 0.2298
  DBP (P17147) protein, numerical value of heatmap FIG. 6C: 0.7802
  HELI (P16736) protein, numerical value of heatmap FIG. 6C: 0.7131
  NEC1 (P16794) protein, numerical value of heatmap FIG. 6C: 0.2456
  NEC2 (P16791) protein, numerical value of heatmap FIG. 6C: 0.6919
  RIR1 (P16782) protein, numerical value of heatmap FIG. 6C: 0.443
  TRM1 (P16724) protein, numerical value of heatmap FIG. 6C: 0.5444
  UL4 (P17146) protein, numerical value of heatmap FIG. 6C: 0.08145
  UL26 (P16762) protein, numerical value of heatmap FIG. 6C: 0.4973
  UL32 (P08318) protein, numerical value of heatmap FIG. 6C: 0.2303
  UL34 (P16812) protein, numerical value of heatmap FIG. 6C: 0.5754
  UL35 (P16766) protein, numerical value of heatmap FIG. 6C: 0.3346
  UL38 (P16779) protein, numerical value of heatmap FIG. 6C: 0.9343
  UL44 (P16790) protein, numerical value of heatmap FIG. 6C: 0.5197
  UL48 (P16785) protein, numerical value of heatmap FIG. 6C: 0.4665
  UL54 (P08546) protein, numerical value of heatmap FIG. 6C: 1.149
  UL71 (P16823) protein, numerical value of heatmap FIG. 6C: 0.768
  UL78 (P16751) protein, numerical value of heatmap FIG. 6C: 1.048
  UL84 (P16727) protein, numerical value of heatmap FIG. 6C: 0.3948
  UL95 (P16801) protein, numerical value of heatmap FIG. 6C: 0.3335
  UL96 (P16787) protein, numerical value of heatmap FIG. 6C: 0.5111
  UL97 (P16788) protein, numerical value of heatmap FIG. 6C: 0.5258
  UL98 (P16789) protein, numerical value of heatmap FIG. 6C: 0.6741
  UL102 (P16827) protein, numerical value of heatmap FIG. 6C: 1.111
  UL104 (P16735) protein, numerical value of heatmap FIG. 6C: 0.4852
  UL112/UL113 (P17151) protein, numerical value of heatmap FIG. 6C: 0.7131
  UL114 (P16769) protein, numerical value of heatmap FIG. 6C: 1.008
